Laboratory results: patent US10266544B2, “Aryl substituted aminomethyl spectinomycin analogs as antibacterial agents” (ST. JUDE CHILDREN'S RESEARCH HOSPITAL, INC., priority 2013, dated 2019)
Values after ≈ are worked out from the molar mass of the structure shown. Where a name gives a salt, the structure may show the parent alone. Read-outs that look alike come from different tables or passages of the source.

Legend:
Assay type in all cases: cell-based
[1] = test system: Streptococcus pyogenes (ATCC 700294); experiment: MIC determination, microbroth dilution; details: ATCC700294; Streptococcus pyogenes (ATCC 700294); read-out: MIC S. py.
[2] = test system: Pseudomonas aeruginosa (PA01); experiment: MIC determination, microbroth dilution
[3] = test system: Stenotrophomonas maltophilia (ATCC 13637); experiment: MIC determination, microbroth dilution; details: ATCC13637; Stenotrophomonas maltophilia (ATCC 13637); read-out: MIC S.m.
[4] = test system: Klebsiella pneumoniae (ATCC 33495); experiment: MIC determination, microbroth dilution; details: ATCC33495
[5] = test system: Legionella pneumophila (ATCC 33153); experiment: microbe, parasite or virus in culture; details: ATCC33153, 72 h, read-out: Zone of inhibition L.p.
[6] = test system: Proteus mirabilis (ATCC 25933); experiment: MIC determination, microbroth dilution; details: ATCC25933
[7] = test system: M. tuberculosis clinical isolates; experiment: microbe, parasite or virus in culture; details: Mycobacterium tuberculosis, H37RV, read-out: MIC H37Rv
[8] = test system: Burkholderia cepacia (ATCC 25416); experiment: MIC determination, microbroth dilution; details: Burkholderia cepacia
[9] = test system: acinetobacter baumannii (ATCC 19606); experiment: MIC determination, microbroth dilution; details: ATCC19606
[10] = test system: Bacillus anthracis, Sterne 34F2; experiment: microbe, parasite or virus in culture; details: STERNE34F2, read-out: MIC B.a.
[11] = test system: Bacillus subtilis (ATCC 23857); experiment: MIC determination, microbroth dilution; details: ATCC23857; Bacillus subtilis (ATCC 23857); read-out: MIC B.s.
[12] = test system: MRSA, Staphylococcus aureus (NRS70); experiment: MIC determination, microbroth dilution; details: Staphylococcus aureus (NRS70); read-out: MIC MRSA
[13] = test system: E. coli K12 ΔtolC; experiment: microbe, parasite or virus in culture; details: Escherichia coli, read-out: MIC E.c. Δtolc
[14] = test system: Enterococcus faecalis (ATCC 33186); experiment: MIC determination, microbroth dilution; details: ATCC33186; Enterococcus faecalis (ATCC 33186); read-out: MIC E.f.
[15] = test system: Streptococcus pneumoniae (R6); experiment: MIC determination, microbroth dilution; details: Streptococcus pneumoniae (R6); read-out: MIC S. pn.
[16] = test system: Proteus vulgaris (ATCC 33420); experiment: MIC determination, microbroth dilution; details: ATCC33420
[17] = test system: Escherichia coli (ATCC 700926); experiment: MIC determination, microbroth dilution
[18] = test system: Neisseria gonorrhoeae (ATCC 49226); experiment: Agar MIC determination (Alamar Blue); details: ATCC49226, agar MIC, read-out: MIC N.g.
[19] = test system: Staphylococcus aureus (ATCC 29213); experiment: MIC determination, microbroth dilution; details: ATCC29213; Staphylococcus aureus (ATCC 29213); read-out: MIC S.a.
[20] = test system: Bacillus anthracis; experiment: microbe, parasite or virus in culture; details: read-out: MIC B.a.
[21] = test system: Neisseria meningitides (ATCC 13077); experiment: Disc diffusion assay; details: ATCC13077, 4 μg per disc, read-out: Zone of inhibition N.m.
[22] = test system: Haemophilus influenza (ATCC 49247); experiment: microbe, parasite or virus in culture; details: ATCC49247; Haemophilus influenza; 4 μg per disc; range of at least two experiments; read-out: Zone of inhibition H.i.
[23] = test system: Neisseria gonorrhoeae (ATCC 49226); experiment: Disc diffusion assay; details: ATCC49226, 4 μg per disc, read-out: Zone of inhibition N.g.
[24] = ATCC25416, read-out: MIC B.c., Burkholderia cepacia (ATCC 25416)
[25] = ATCC700926, Escherichia coli (ATCC 700926), read-out: MIC E.c.

SMILES	MIC [1] [µg/mL]	MIC [2] [µg/mL]	MIC [3] [µg/mL]	MIC [4] [µg/mL]	zone of inhibition at 4 µg/disc [5] [mm]	MIC [6] [µg/mL]	MIC [7] [µg/mL]	MIC [8, 24] [µg/mL]	MIC [9] [µg/mL]	MIC [10] [µg/mL]	MIC [11] [µg/mL]	MIC [12] [µg/mL]	MIC [13] [µg/mL]	MIC [14] [µg/mL]	MIC [15] [µg/mL]	MIC [16] [µg/mL]	MIC [18] [µg/mL]	MIC [19] [µg/mL]	MIC [17, 25] [µg/mL]	zone of inhibition at 4 µg/disc [21] [mm]	further results
CN[C@@H]1[C@H](O)[C@H](NC)[C@H]2O[C@]3(O)[C@H](O[C@@H]2[C@H]1O)O[C@H](C)C[C@]3(O)CNCc1ccc(OC(F)(F)F)cc1 (stereo in doubt) [compound 26, 3′-(S)-3′-[(4-trifluoromethoxyl)benzylaminomethyl)]dihydrospectinomycin Trihydrochloride]	> 200	> 200	50	100	8	> 200	100	> 200	50 to 100	≥ 200	100 to 200	> 200	6.3	> 200	> 200	> 200	50 to 100	≥ 200	–	–	MIC ([17]; Escherichia coli, ATCC700926, read-out: MIC E.c.): 50 µg/mL
CN[C@@H]1[C@H](O)[C@H](NC)[C@H]2O[C@]3(O)[C@H](O[C@@H]2[C@H]1O)O[C@H](C)C[C@@]3(O)CNCc1cnc[nH]1 [compound 20]	50 (≈ 113 µM)	200 (≈ 451 µM)	3.1 to 6.3 (≈ 6.99 to 14.2 µM)	50 to 100 (≈ 113 to 225 µM)	–	200 (≈ 451 µM)	6.3 (≈ 14.2 µM)	100 to 200 (≈ 225 to 451 µM)	> 200	50 to 100 (≈ 113 to 225 µM)	25 (≈ 56.4 µM)	≥ 200	25 (≈ 56.4 µM)	100 (≈ 225 µM)	25 to 50 (≈ 56.4 to 113 µM)	100 to 200 (≈ 225 to 451 µM)	100 to 200 (≈ 225 to 451 µM)	200 (≈ 451 µM)	50 (≈ 113 µM)	–	MIC [20]: 50 to 100 µg/mL (≈ 113 to 225 µM); MIC ([8]; ATCC25416, read-out: MIC B.c., Burkholderia cepacia, Table 6): 100 to 200 µg/mL (≈ 225 to 451 µM)
CN[C@@H]1[C@H](O)[C@H](NC)[C@H]2O[C@]3(O)[C@H](O[C@@H]2[C@H]1O)O[C@H](C)C[C@]3(O)CNCc1ccc(F)cc1 [compound 28, 3′-(S)-3′-[(4-fluoro)benzylaminomethyl)]dihydrospectinomycin Trihydrochloride]	100 to 200	–	–	> 200	0	–	200	> 200	> 200	> 200	–	> 200	≥ 200	> 200	≥ 200	–	200	> 200	> 200	0	zone of inhibition at 4 µg/disc [22]: 0 mm
CN[C@@H]1[C@H](O)[C@H](NC)[C@H]2O[C@]3(O)[C@H](O[C@@H]2[C@H]1O)O[C@H](C)C[C@@]3(O)CNCc1nc2ccccc2s1 [compound 34, 3′-(A′)-3′-(benzo[d]thiazolylmethyl)aminomethyl dihydrospectinomycin Trihydrobromide]	3.1	> 200	100	100 to 200	–	> 200	12.5	> 200	> 200	50	50 to 100	100 to 200	–	25	6.3	> 200	100	50 to 100	–	12	zone of inhibition at 4 µg/disc [22]: 7 mm; zone of inhibition at 4 µg/disc [23]: 8 mm
